The values below come from patent US5631146A, “DNA aptamers and catalysts that bind adenosine or adenosine-5'-phosphates and methods for isolation thereof” (The General Hospital Corporation, priority 1995, dated 1997).

Experiment [1] concerns the target adenosine/ATP-binding single-stranded DNA aptamer (minimal ATP aptamer DH25.42, SEQ ID NO:46). In words: Kd for adenosine by analytical ultrafiltration. Particulars: room temperature, column buffer (300 mM NaCl, 5 mM MgCl2, 20 mM Tris pH 7.6), 5.49 nM [3H]adenosine, average of two estimates, read-out: Kd for adenosine in solution. As for the experimental part: Although quantitative binding data from column elution experiments is imprecise, an estimate of adenosine affinity in solution was obtained by ultrafiltration experiments (Jenison et al., Science 263:1425-1429, (1994)).
The Kd for adenosine was measured by analytical ultrafiltration (Jenison et al., Science 263:1425-1429, (1994)). In this technique bound and unbound ligand partition across a membrane in a ultra filtration device. DNA (0.06 μM-30 μM) was incubated for 5 min. at room temperature in 200 μl of column buffer containing 5.49 nM [2,8,5'^3H] adenosine. The reaction mixture was loaded onto an Microcon 10 microconcentrator (Amicon) and spun at 14000 RPM in an Eppendorf 5415 centrifuge for 4 min., resulting in 100 μl of ultrafiltrate. This method could not be used with ATP because only 30% of ATP passed through the filter in 50% of the volume. Even with adenosine, only 40-45% passed through in 50% of the volume. The Kd was estimated from the concentration of DNA calculated to decrease the amount of adenosine passing through the filter by 50%. During the course of the experiment the DNA concentration increases by a factor of two since the DNA is retained above the filter; therefore, using the initial DNA concentration would give an artificially low Kd, and using the final DNA concentration would give an artificially high Kd. The Kd reported is the average of these two estimates. […]

The test system of experiment [2] is adenosine/ATP-binding single-stranded DNA aptamer (minimal ATP aptamer DH25.42, SEQ ID NO:46). In words: ATP analog elution of bound aptamer from ATP-agarose column. Particulars: 3 column volumes of 1.5 mM analog. As for the experimental part: FIG. 9A-C are graphs of exemplary elution profiles with analogs of ATP. DNA was loaded onto an ATP-agarose affinity column and washed with 10 column volumes of wash buffer. Bound DNA was then eluted with 3 column volumes of wash buffer containing 1.5 mM analog, then washed with 2 more column volumes of wash buffer; remaining DNA was then eluted in 3 column volumes of wash buffer containing 1.5 mM ATP. Data point at column volume 19 is that remaining on the column after all washes. Elution profiles with 9A. adenosine, 9B. 3-methyl adenine, and 9C. purine riboside.
FIG. 10 is a schematic diagram showing the specifity of the adenosine/ATP aptamer, as determined by analog elution experiments. ++, 85-100% of DNA eluted in 3 column volumes of 1.5 mM ligand; +, 70-84% of DNA eluted in 3 column volumes of 1.5 mM ligand; +/-, 6%-69% of DNA eluted in 3 column volumes of 1.5 mM ligand; -, <5% of DNA eluted in 3 column volumes of 1.5 mM ligand. The regions most important for binding are highlighted by the shaded boxes. […]
10-500 ng (1.2 pmol-60 pmol) of affinity purified DNA was loaded onto a 1/4 ml bed volume ATP-agarose column pre-equilibrated with column buffer. […] Each fraction was then analyzed by Cerenkov counting. […]

`Nc1ncnc2c1ncn2[C@@H]1O[C@H](CO)[C@@H](O)[C@H]1O` [adenosine]: in experiment [1], the Kd is 6 ± 3 µM.

For `Nc1ncnc2c1ncn2[C@H]1O[C@H](CO)[C@@H](O)[C@H]1O` [9-α-ribofuranosyladenine], the “elution of bound aptamer from the ATP-agarose column by analog” value in experiment [2] is “did not elute bound aptamer”.
